{"source": "patent US20100272711A1", "about": "“COMPOSITIONS AND METHODS FOR THE TREATMENT AND PREVENTION OF CARDIOVASCULAR DISEASES” (THOMAS JEFFERSON UNIVERSITY, priority 2007, published 2010)", "key": {"[1]": {"system": "cardiac A1-AR expression (tTA transactivation)", "experiment": "Doxycycline-regulated A1-AR transgene expression (tet-off system) in A1-TG mice", "type": "in vivo, mouse", "source_text": "Transgenic mouse generation. The human A1-AR cDNA was cloned into a cardiac-specific and inducible controlled vector (TREMHC)^64 composed of a modified mouse α-myosin heavy chain minimal promoter fused with nucleotide binding sites for tetracyline transactivating factor (tTA).^33 A1-AR transgenic mice, engineered on a FVB background (PolyGene, Switzerland), were crossed with mice that expressed tTA in the heart (MHC-tTA) (FIG. 1A). In this “tet-off” inducible system, the stable tetracycline analog, doxycycline (DOX), inhibits tTA transactivation and was administered to mice at 300 mg/kg of mouse diet (Bio-Serv, NJ). Survival studies were performed using both male and female mice and found no statistical significant differences. Therefore, only male mice were used for subsequent studies. All protocols were approved by the Institutional Animal Care and Use Committee of Thomas Jefferson University.\nDoxycyline-regulated A1-AR expression. The stable tetracycline analog, doxycycline (DOX), inhibits tTA transactivation. The inventors determined a minimal dose of DOX (300 mg/kg of mouse diets) that attenuated A1-AR expression, which, in turn prevented cardiomyopathy. […] To generate inducible A1-AR transgenic mice (A1-TGInd), DOX was removed when mice reached three-weeks of age. […] At six weeks of age, A1-AR protein expression in A1-TGCcon and A1-TGInd was identical (FIGS. 2B and C). […]"}, "[2]": {"system": "WT mice", "experiment": "Effect of DOX diet on heart size and function of wild type mice", "type": "in vivo, mouse", "conditions": "300 mg/kg diet; 12-week-old mice; FIGS. 9 and 10", "experimental": "7-10 12-weeks old mice from each group were measured. No significance was detected at p-value setting of P<0.05.\nEchocardiography were performed on 7-10 12-weeks-old male mice. No significance was detected at p-value setting of P<0.05.\nEchocardiography and Electrocardiogram (ECG). Echocardiographic studies on A1-AR transgenic mice were performed using an ultrasonographic system (ACUSON Sequoia C256) as described.^34,35 […] Non-transgenic littermates served as controls and unless otherwise noted, all mice were male. Mice were anesthetized with 2.5% Avertin (10 μl/g body weight, IP, Aldrich Chemical Co) and placed in the supine position. A 14-MHz transducer was applied to the left hemithorax. Two-dimensional targeted M-mode imaging was obtained from the short-axis view at the level of the greatest left ventricular dimension at baseline. […] End diastole was determined at the maximal left ventricular diastolic dimension, and end systole was taken at the peak of posterior-wall motion. […] ECG was recorded for 2 minutes and analyzed using Char 5 software (Adinstruments). […]"}, "[3]": {"system": "animal models of ischemia/reperfusion injury", "conditions": "with a sodium-hydrogen exchanger inhibitor at reperfusion; or just before reperfusion in animal models; cited from earlier work"}, "[4]": {"system": "wild-type and TNF 1.6 mice", "experiment": "Left ventricular hemodynamics: chronotropic and functional responsiveness to adenosine analogue or AR agonists", "type": "in vivo, mouse", "experimental": "FIGS. 16A-16B show the cardiac response of wild type (WT) and TNF 1.6 transgenic mice to an adenosine analogue or AR agonists. Under anesthetization, a 1.4 F micromanometer catheter (Millar Instruments) was inserted into the left ventricle through the right carotid artery. Chronotropic and functional responsiveness to adenosine analogue or AR agonists were recorded. […] Values are mean±SEM (n=5). *P<0.05 vs. age-matched WT. The graph measured the slope (in vivo chronotropic responsiveness) from baseline to 10 minutes after drug administration in wild-type and TNF 1.6 mice. Values were mean±SEM (n=5) and compared using ANOVA General Linear Model with repeated measures. *P<0.05 vs. age-matched WT in slope change. The graph in FIG. 16B measured the slope (arterial pressure or cardiac contractility) from baseline to 10 minutes after drug administration in wild-type and TNF1.6 mice. Values were mean±SEM (n=5) and compared using ANOVA General Linear Model with repeated measures. *P<0.05 vs. age-matched WT in slope change. Left Ventricular Hemodynamics Measurement. After anesthetization with 2.5% Avertin (10 μl/g body weight, IP, Aldrich Chemical Co), mice were placed in the supine position. A 1.4 F micromanometer catheter (Millar Instruments) was inserted into the left ventricle through the right carotid artery.^64,65 Left ventricular pressure and heart rate were then recorded at baseline and 10 minutes after injection of CPA (0.1 mg/kg body weight, IP, Sigma-Aldrich Co). A1 receptor-specific functional response. To determine whether the changes in A1-AR levels had functional significance in TNF 1.6 mice, the inventors determined the chronotropic response to the selective A1-AR agonist, 2-chloro-N^6-cyclopentanyladenosine (CPA)."}}}
{"compound": "C[C@H]1c2cccc(O)c2C(=O)C2=C(O)[C@]3(O)C(=O)C(C(N)=O)=C(O)[C@@H](N(C)C)[C@@H]3[C@@H](O)[C@@H]21", "note": "[DOX, doxycycline]", "values": [{"measurement": "minimal dose that attenuated A1-AR expression", "setting": "[1]; in turn prevented cardiomyopathy", "value": "300 mg/kg of mouse diets"}, {"measurement": "transgene suppressed", "setting": "[1]; sub-optimum DOX dose", "value": 80, "unit": "%"}, {"measurement": "WT mouse heart size or function", "setting": "[2]", "value": "did not affect WT mouse heart size or function"}]}
{"compound": "CCNC(=O)[C@H]1CC(n2cnc3c(N[C@H](CC)Cc4sccc4Cl)ccnc32)[C@H](O)[C@@H]1O", "note": "(relative stereo) [AMP 579, [1S-[1α,2β,3β,4α(S*)]]-4-[7-[[3-chloro-2-thienyl)methyl]propyl]amino]-3H-imidazo[4,5-b]pyridin-3-yl]-N-ethyl-2,3-dihydroxycyclopentanecarboxamide]", "values": [{"measurement": "cardioprotection", "setting": "[3]", "value": "cardioprotective"}]}
{"compound": "OC[C@H]1O[C@@H](n2cnc3c(NC4CCCC4)nc(Cl)nc32)[C@H](O)[C@@H]1O", "note": "[CPA, 2-chloro-N^6-cyclopentanyladenosine]", "values": [{"measurement": "arterial pressure and cardiac contractility after injection", "setting": "[4]; baseline to 10 minutes after CPA injection, FIG. 16B", "value": "only slightly increased arterial pressure and cardiac contractility"}, {"measurement": "chronotropic response in TNF 1.6 mice compared with age- and gender-matched wild-type controls", "setting": "[4]; baseline to 10 minutes after drug administration, n=5", "value": "far more robust decrease in heart rate"}, {"measurement": "heart rate (chronotropic response)", "setting": "[4]; wild-type mice, baseline to 10 minutes after injection, CPA 0.1 mg/kg IP", "value": "effectively decreased heart rate"}]}
